Test results reported in patent publication US8952024B2, “Herbicidal pyrimidone derivatives” (E I du Pont de Nemours and Company, priority 2009, dated 2015).

Key:
Assay in all cases: Test B pre-/postemergence plant response
Format in all cases: in vivo
[1] = system: Italian ryegrass (Lolium multiflorum); conditions: Postemergence
Summary of the method: (§1)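 Compound in solvent + surfactant applied pre-em (loam/sand) or post-em (plants 2–18 cm, peat medium); greenhouse hold 13–15 days; visual 0–100 control score.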

[2] = system: Surinam grass (Brachiaria decumbens); conditions: Postemergence
Summary of the method: as §1

[3] = system: bermudagrass (Cynodon dactylon); conditions: for Bermudagrass plant response rating (0 to 100 scale): 62 g ai/ha, postemergence, 0 is no effect, 100 is complete control; for Plant response rating, Bermudagrass: Postemergence
Summary of the method: as §1

[4] = system: blackgrass (Alopecurus myosuroides); conditions: for Blackgrass plant response rating (0 to 100 scale): 62 g ai/ha, postemergence, 0 is no effect, 100 is complete control; for Plant response rating, Blackgrass: Postemergence
Summary of the method: as §1

[5] = system: cocklebur (Xanthium strumarium); conditions: Postemergence
Summary of the method: as §1

[6] = system: corn (Zea mays); conditions: Postemergence
Summary of the method: as §1

[7] = system: downy bromegrass (Bromus tectorum); conditions: for Bromegrass, Downy plant response rating (0 to 100 scale): 62 g ai/ha, postemergence, 0 is no effect, 100 is complete control; for Plant response rating, Bromegrass, Downy: Postemergence
Summary of the method: as §1

[8] = system: green foxtail (Setaria viridis); conditions: Postemergence
Summary of the method: as §1

[9] = system: kochia (Kochia scoparia); conditions: Postemergence
Summary of the method: as §1

[10] = system: lambsquarters (Chenopodium album); conditions: Postemergence
Summary of the method: as §1

[11] = system: large crabgrass (Digitaria sanguinalis); conditions: Postemergence
Summary of the method: as §1

[12] = system: pigweed (Amaranthus retroflexus); conditions: Postemergence
Summary of the method: as §1

[13] = system: ragweed (common ragweed, Ambrosia elatior); conditions: Postemergence
Summary of the method: as §1

[14] = system: soybean (Glycine max); conditions: Postemergence
Summary of the method: as §1

[15] = system: velvetleaf (Abutilon theophrasti); conditions: Postemergence
Summary of the method: as §1

[16] = system: wild oat (Avena fatua); conditions: Postemergence
Summary of the method: as §1

[17] = system: yellow nutsedge (Cyperus esculentus); conditions: Postemergence
Summary of the method: as §1

[18] = 31 g ai/ha, 0 to 100 scale (0 no effect, 100 complete control)
[19] = 125 g ai/ha, scale 0 to 100 (0 no effect, 100 complete control)
[20] = 250 g ai/ha, scale 0 to 100 (0 no effect, 100 complete control), 13 to 15 days

O=C1CCCC(O)=C1C(=O)c1cnc(C2CC2)n(C2CCCCC2)c1=O [Compound 160]
95: Plant response rating, Bermudagrass [3, 20] | Plant response rating, Lambsquarters [10, 18] | Plant response rating, Crabgrass, Large [11, 19] | Plant response rating, Crabgrass, Large [11, 20]
5: Plant response rating, Blackgrass [4, 18] | Bromegrass, Downy plant response rating (0 to 100 scale) ([7]; 13 to 15 days)
35: Plant response rating, Ryegrass, Italian [1, 19] | Plant response rating, Ryegrass, Italian [1, 20]
50: Plant response rating, Corn [6, 19] | Plant response rating, Bromegrass, Downy [7, 19] | Plant response rating, Oat, Wild [16, 19]
0: Plant response rating, Ryegrass, Italian [1, 18] | Plant response rating, Bromegrass, Downy [7, 18]
98: Plant response rating, Cocklebur [5, 18] | Plant response rating, Foxtail, Green [8, 20] | Plant response rating, Lambsquarters [10, 19] | Plant response rating, Lambsquarters [10, 20] | Plant response rating, Ragweed [13, 19] | Plant response rating, Ragweed [13, 20] | Plant response rating, Soybean [14, 19] | Plant response rating, Soybean [14, 20]
90: Plant response rating, Bermudagrass [3, 19] | Plant response rating, Kochia [9, 18] | Plant response rating, Pigweed [12, 18] | Plant response rating, Velvetleaf [15, 18]
80: Plant response rating, Crabgrass, Large [11, 18] | Plant response rating, Ragweed [13, 18] | Plant response rating, Nutsedge, Yellow [17, 19] | Plant response rating, Nutsedge, Yellow [17, 20]
20: Plant response rating, Blackgrass [4, 19]
60: Plant response rating, Surinam Grass [2, 19] | Plant response rating, Corn [6, 20] | Plant response rating, Oat, Wild [16, 20]
65: Plant response rating, Bermudagrass [3, 18] | Plant response rating, Nutsedge, Yellow [17, 18]
15: Plant response rating, Corn [6, 18]
100: Plant response rating, Cocklebur [5, 19] | Plant response rating, Cocklebur [5, 20] | Plant response rating, Kochia [9, 19] | Plant response rating, Kochia [9, 20] | Plant response rating, Pigweed [12, 19] | Plant response rating, Pigweed [12, 20] | Plant response rating, Velvetleaf [15, 19] | Plant response rating, Velvetleaf [15, 20]
40: Plant response rating, Surinam Grass [2, 18]
70: Plant response rating, Foxtail, Green [8, 19]
85: Plant response rating, Soybean [14, 18]
25: Plant response rating, Blackgrass [4, 20]
55: Plant response rating, Bromegrass, Downy [7, 20] | Plant response rating, Foxtail, Green [8, 18]
10: Blackgrass plant response rating (0 to 100 scale) ([4]; 13 to 15 days) | Plant response rating, Oat, Wild [16, 18]
75: Plant response rating, Surinam Grass [2, 20] | Bermudagrass plant response rating (0 to 100 scale) ([3]; 13 to 15 days)

Cc1ccc(-n2c(-c3cc(F)cc(F)c3)ncc(C(=O)C3=C(O)CCCC3=O)c2=O)cc1 [Compound 162]
85: Plant response rating, Surinam Grass [2, 20] | Plant response rating, Bermudagrass [3, 18] | Plant response rating, Corn [6, 20]
45: Plant response rating, Bromegrass, Downy [7, 19] | Plant response rating, Oat, Wild [16, 19]
65: Plant response rating, Surinam Grass [2, 18] | Plant response rating, Blackgrass [4, 20]
80: Plant response rating, Ryegrass, Italian [1, 19] | Plant response rating, Corn [6, 19] | Plant response rating, Kochia [9, 20] | Plant response rating, Lambsquarters [10, 18] | Plant response rating, Crabgrass, Large [11, 18] | Plant response rating, Velvetleaf [15, 18] | Plant response rating, Nutsedge, Yellow [17, 20]
55: Plant response rating, Blackgrass [4, 19] | Plant response rating, Oat, Wild [16, 20]
50: Plant response rating, Corn [6, 18] | Plant response rating, Bromegrass, Downy [7, 20]
40: Plant response rating, Ryegrass, Italian [1, 18] | Blackgrass plant response rating (0 to 100 scale) ([4]; 13 to 15 days)
20: Plant response rating, Bromegrass, Downy [7, 18] | Plant response rating, Kochia [9, 18]
95: Bermudagrass plant response rating (0 to 100 scale) ([3]; 13 to 15 days) | Plant response rating, Velvetleaf [15, 19]
25: Plant response rating, Nutsedge, Yellow [17, 18]
35: Plant response rating, Oat, Wild [16, 18]
90: Plant response rating, Ryegrass, Italian [1, 20] | Plant response rating, Ragweed [13, 18]
98: Plant response rating, Foxtail, Green [8, 18] | Plant response rating, Foxtail, Green [8, 19] | Plant response rating, Lambsquarters [10, 19] | Plant response rating, Crabgrass, Large [11, 19] | Plant response rating, Crabgrass, Large [11, 20] | Plant response rating, Soybean [14, 18]
30: Plant response rating, Blackgrass [4, 18] | Bromegrass, Downy plant response rating (0 to 100 scale) ([7]; 13 to 15 days)
75: Plant response rating, Surinam Grass [2, 19] | Plant response rating, Kochia [9, 19] | Plant response rating, Nutsedge, Yellow [17, 19]
100: Plant response rating, Bermudagrass [3, 19] | Plant response rating, Bermudagrass [3, 20] | Plant response rating, Cocklebur [5, 18] | Plant response rating, Cocklebur [5, 19] | Plant response rating, Cocklebur [5, 20] | Plant response rating, Foxtail, Green [8, 20] | Plant response rating, Lambsquarters [10, 20] | Plant response rating, Pigweed [12, 18] | Plant response rating, Pigweed [12, 19] | Plant response rating, Pigweed [12, 20] | Plant response rating, Ragweed [13, 19] | Plant response rating, Ragweed [13, 20] | Plant response rating, Soybean [14, 19] | Plant response rating, Soybean [14, 20] | Plant response rating, Velvetleaf [15, 20]
